# From the supplement of paper PMC7224384
# Legend:
# MDA-MB-453 [1] = assay: drug sensitivity score (DSS), in combination with BLU9931 (DSS (weighted AUC score)); higher = more sensitive (stronger viability decrease); extreme values may be limits of the assay; conditions: BLU9931 100 nM; 72 h
# In short: (§1)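 Compounds from the FIMM Oncology set were predispensed in singlicate at five 10-fold dilutions (10,000-fold range) on 384-well plates. Each well then received 2000 MDA-MB-453 cells in medium with or without an FGFR4 inhibitor (100 nM final) and was kept at 37 °C, 5% CO2. Cellular ATP was read with CellTiterGlo 2.0 after 72 h and normalised per plate to percent viability from control wells. The drug sensitivity score is a weighted area under a four-parameter logistic fit.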
# MDA-MB-453 [2] = assay: drug sensitivity score (DSS), single agent (DSS (weighted AUC score)); higher = more sensitive (stronger viability decrease); extreme values may be limits of the assay; conditions: BLU9931 0 nM; 72 h
# In short: as §1
SMILES,drug sensitivity score (MDA-MB-453 [1]),drug sensitivity score (MDA-MB-453 [2])
CO[C@H](C(=O)[C@@H](O)[C@@H](C)O)[C@@H]1Cc2cc3cc(O[C@H]4C[C@@H](O[C@@H]5C[C@@H](O)[C@H](O)[C@@H](C)O5)[C@H](O)[C@@H](C)O4)c(C)c(O)c3c(O)c2C(=O)[C@H]1O[C@H]1C[C@@H](O[C@@H]2C[C@@H](O)[C@@H](O[C@@H]3C[C@](C)(O)[C@H](O)[C@@H](C)O3)[C@@H](C)O2)[C@H](O)[C@@H](C)O1 [Plicamycin],15.7,15.7
C[C@H]1CN(C2COC2)CCN1c1ccc(Nc2cc(-c3ccnc(N4CCn5c(cc6c5CC(C)(C)C6)C4=O)c3CO)cn(C)c2=O)nc1 [GDC-0853],0,0
Cc1c(F)cc(C(=O)NC2CC2)cc1-c1ccc(C(=O)NCC(C)(C)C)cn1 [Losmapimod],1.4,0.4
Cc1nc(Nc2n[nH]c3c2CN(C(=O)N[C@H](CN(C)C)c2ccccc2)C3(C)C)c2sccc2n1,8.7,11.4
CCc1nc(C(N)=O)c(Nc2ccc(N3CCC(N4CCN(C)CC4)CC3)c(OC)c2)nc1NC1CCOCC1 [Gilteritinib],0,0
COc1cc(Nc2ncc(F)c(Nc3ccc4c(n3)N(COP(=O)(O)O)C(=O)C(C)(C)O4)n2)cc(OC)c1OC [Fostamatinib],0,0.1
COCC1(CO)C(=O)C2CCN1CC2 (stereo unspecified) [APR-246],0.4,0
Nc1nc(Cl)nc2c1ncn2[C@@H]1O[C@H](CO)[C@@H](O)[C@@H]1F [Clofarabine],3.9,4.4
O=C1CCc2c(Oc3ccc4c(c3)[C@@H]3[C@H](O4)[C@H]3c3nc4cc(C(F)(F)F)ccc4[nH]3)ccnc2N1 [BGB-283],1.3,3.6
N#CC(c1ccnc(OCc2ccc(CN3CCOCC3)cc2)n1)c1nc2ccccc2s1 (stereo unspecified) [Bentamapimod],1.3,2.6
Nc1nc(NC2CC2)cc(-c2cccc(Cl)c2Cl)n1 [TH588],1.7,2.4
CCc1cc2c(cc1N1CCC(N3CCOCC3)CC1)C(C)(C)c1[nH]c3cc(C#N)ccc3c1C2=O [Alectinib],0,0.9
O=C(O)c1ccc(-c2c[nH]c3ncc(-c4ccccc4)cc23)cc1C1CCCC1,0.5,1.4
CC(=O)Nc1cccc(-n2c(=O)n(C3CC3)c(=O)c3c(Nc4ccc(I)cc4F)n(C)c(=O)c(C)c32)c1 [Trametinib],2.7,5.7
Nc1ncnc2c1nc(Cl)n2[C@@H]1O[C@H](CO)[C@@H](O)[C@H]1O [8-chloro-adenosine],9.4,8.1
Cc1ccc(C(=O)N(CCCN)[C@@H](c2oc3cc(Cl)ccc3c(=O)c2Cc2ccccc2)C(C)C)cc1,1.8,5.3
C[C@]12CC[C@H](O)CC1=CC[C@@H]1[C@@H]2CC[C@]2(C)C(c3cccnc3)=CC[C@@H]12 [Abiraterone],0,0
CCn1cc(-c2ccnc3[nH]c(-c4cccc(CN(C)C)c4)cc23)c(-c2ccc(NC(=O)N(C)C)cc2)n1,1,1
C[C@]1(c2nc3c(C(N)=O)cccc3[nH]2)CCCN1 [Veliparib],2.9,1.6
CN(C)Cc1ccc(S(=O)(=O)n2ccc(/C=C/C(=O)NO)c2)cc1 [Resminostat],16.2,16
CO[C@H]1C[C@@H]2CC[C@@H](C)[C@@](O)(O2)C(=O)C(=O)N2CCCC[C@H]2C(=O)O[C@H]([C@H](C)C[C@@H]2CC[C@@H](OC(=O)C(C)(CO)CO)[C@H](OC)C2)CC(=O)[C@H](C)/C=C(\C)[C@@H](O)[C@@H](OC)C(=O)[C@H](C)C[C@H](C)/C=C/C=C/C=C/1C [Temsirolimus],14.8,10.3
CCCS(=O)(=O)Nc1ccc(F)c(C(=O)c2c[nH]c3ncc(-c4ccc(Cl)cc4)cc23)c1F [Vemurafenib],0,0
Cc1ccc(NC(=O)c2ccc(CN3CC[C@H](N(C)C)C3)c(C(F)(F)F)c2)cc1Nc1nccc(-c2cncnc2)n1 [Bafetinib],0,0
COc1cc2ncnc(Nc3ccc(F)c(Cl)c3)c2cc1NC(=O)/C=C/CN1CCCCC1 [Dacomitinib],8.6,7.3
COC(=O)c1ccc2c(c1)NC(=O)/C2=C(\Nc1ccc(N(C)C(=O)CN2CCN(C)CC2)cc1)c1ccccc1 [Nintedanib],1.9,4.7
Cc1nc(C(=O)NCC(=O)O)c(O)c2ccc(Oc3ccccc3)cc12 [Roxadustat],0,0
CC[C@H](NC(=O)[C@H](C)NC)C(=O)N1C[C@@H](O)C[C@H]1Cc1c(-c2[nH]c3cc(F)ccc3c2C[C@@H]2C[C@H](O)CN2C(=O)[C@H](CC)NC(=O)[C@H](C)NC)[nH]c2cc(F)ccc12 [Birinapant],15.8,10.1

SMILES,drug sensitivity score (MDA-MB-453 [1]),drug sensitivity score (MDA-MB-453 [2])
CC(C)(C)C[C@@H]1N[C@@H](C(=O)N[C@H]2CC[C@H](O)CC2)[C@H](c2cccc(Cl)c2F)[C@]12C(=O)Nc1cc(Cl)ccc12,0,0.9
CC(C)(C)c1cc(NC(=O)Nc2ccc(-c3cn4c(n3)sc3cc(OCCN5CCOCC5)ccc34)cc2)no1 [Quizartinib],0.4,1
NC(=O)NO [Hydroxyurea],1.6,2.3
COc1c(OCCCN2CCOCC2)ccc2c1N=C(NC(=O)c1cnc(N)nc1)N1CCN=C21 [Copanlisib],23.4,22.4
Nc1ccn([C@@H]2O[C@H](CO)[C@@H](O)[C@@H]2O)c(=O)n1 [Cytarabine],0.1,0.8
COCCNCc1ccc(-c2cc3nccc(Oc4ccc(NC(=O)C5(C(=O)Nc6ccc(F)cc6)CC5)cc4F)c3s2)nc1 [Sitravatinib],0,0.6
CCNC(=O)CCC/C=C\C[C@@H]1[C@@H](/C=C/[C@@H](O)CCc2ccccc2)[C@H](O)C[C@@H]1O [Bimatoprost],0,0
O[C@H](C[C@H]1c2c(F)cccc2-c2cncn21)[C@H]1CC[C@H](O)CC1 [GDC-0919],0,0
CO[C@@H]1[C@H](N(C)C(=O)c2ccccc2)C[C@H]2O[C@]1(C)n1c3ccccc3c3c4c(c5c6ccccc6n2c5c31)C(=O)NC4 [Midostaurin],4.8,7.3
CCN(CC)CCN(Cc1ccc(-c2ccc(C(F)(F)F)cc2)cc1)C(=O)Cn1c(SCc2ccc(F)cc2)nc(=O)c2c1CCC2 [Darapladib],0,1.5
Nc1nc(N)c2nc(-c3cccc(O)c3)c(-c3cccc(O)c3)nc2n1 [TG100-115],5.9,5.1
O=C(NOC[C@H](O)CO)c1ccc(F)c(F)c1Nc1ccc(I)cc1F,1.1,1.2
Nc1cccc2c1CN(C1CCC(=O)NC1=O)C2=O (stereo unspecified) [Lenalidomide],0,0
Nc1cccc2c1C(=O)N(C1CCC(=O)NC1=O)C2=O (stereo unspecified) [Pomalidomide],0,0
CC(C)[C@H](C(=O)Nc1ccc(C(=O)NO)cc1)c1ccccc1 [AR-42],17.8,18.1
CC(=O)N(O)CCCCCNC(=O)CCC(=O)N(O)CCCCCNC(=O)CCC(=O)N(O)CCCCCN [Deferoxamine],4.3,2.3
CC[C@H](C)C(=O)O[C@H]1C[C@@H](C)C=C2C=C[C@H](C)[C@H](CC[C@@H]3C[C@@H](O)CC(=O)O3)[C@H]21 [Lovastatin],0,0
Oc1nc(-c2ccc(C(F)(F)F)cc2)nc2c1CSCC2 [XAV-939],0.1,0.2
Cc1cc(Nc2cc(CN3CCOCC3)c3nc(C)c(Cc4ccc(Cl)cc4F)n3n2)n[nH]1 [Gandotinib],1.2,5
Cc1[nH]nc(C(F)(F)F)c1Cc1sc2c(c1C(=O)N1C[C@](C)(O)CO1)c(=O)n(C)c(=O)n2C(C)C [AZD3965],0,0
Cc1cn(-c2cc(NC(=O)c3ccc(C)c(Nc4nccc(-c5cccnc5)n4)c3)cc(C(F)(F)F)c2)cn1 [Nilotinib],1.5,1.7
COc1cc([C@@H]2c3cc4c(cc3[C@@H](O[C@@H]3O[C@@H]5CO[C@@H](C)O[C@H]5[C@H](O)[C@H]3O)[C@H]3COC(=O)[C@H]23)OCO4)cc(OC)c1O [Etoposide],2.9,2.8
O=C(CCCCCCNC(=O)c1cnc(N(c2ccccc2)c2ccccc2)nc1)NO [Rocilinostat],9.8,9.2
CN(c1ncccc1CNc1nc(Nc2ccc3c(c2)CC(=O)N3)ncc1C(F)(F)F)S(C)(=O)=O,3.9,3.9
CCC(C)n1ncn(-c2ccc(N3CCN(c4ccc(OCC5COC(Cn6cncn6)(c6ccc(Cl)cc6Cl)O5)cc4)CC3)cc2)c1=O (stereo unspecified) [Itraconazole],1.5,2.9
Cn1cc(CNCC2CCN(c3ncc(C(=O)NO)cn3)CC2)c2ccccc21 [Quisinostat],21.3,22.4
